Measured values reported in patent US9394295B2, “Antibacterial homopiperidinyl substituted 3,4-dihydro-1H-[1,8]naphthyridinones” (Janssen Sciences Ireland UC, priority 2011, dated 2016).
Values after ≈ are worked out from the molar mass of the structure shown. Where two headings read alike, the source gives them in different places.

How the values were obtained:
[1] = molecular target: T1, S. aureus ATCC 29213 FabI (Staphylococcus aureus, UniProt Q6GI75); assay: Staphylococcus aureus FabI enzyme inhibition assay; format: biochemical; conditions: 30 minutes at room temperature, NADH consumption
T1 sequence (Q6GI75 1-256): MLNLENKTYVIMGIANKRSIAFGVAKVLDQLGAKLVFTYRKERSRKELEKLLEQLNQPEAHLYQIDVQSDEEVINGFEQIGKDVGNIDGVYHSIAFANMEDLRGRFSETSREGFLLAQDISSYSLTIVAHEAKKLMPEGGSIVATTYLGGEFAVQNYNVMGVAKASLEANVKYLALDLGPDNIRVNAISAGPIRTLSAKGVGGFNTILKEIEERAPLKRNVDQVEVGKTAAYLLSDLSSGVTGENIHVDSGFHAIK
Method: FabI enzyme inhibition assays were carried out in half-area, 384-well microtitre plates. Compounds were evaluated in 40-μl assay mixtures containing 100 mM NaADA, pH 6.5 (ADA=N-[2-acetamido]-2iminodiacetic acid), 250 μM crotonoyl-CoA, 625 μM NADH and 50 μg/ml S. aureus ATCC 29213 FabI Inhibitors were typically varied over the range of 50 to 0.39 μM. The reaction mixtures were incubated for 30 minutes at room temperature and the reaction was stopped by adding 200 mM Tris buffer (pH 9.0) to create a pH-shift. The consumption of NADH was monitored by measuring the change in absorbance at […]. By comparing sample readings to those of negative (absence of compound) and positive (absence of enzyme) controls, the percent inhibition of enzymatic activity of the compounds was determined. A best-fit curve is fitted by a minimum of squares method. From this an IC50-value (expressed in μg/ml), resulting in 50% inhibition of enzymatic activity, was obtained.

[2] = tested on: Staphylococcus aureus ATCC 29213; assay: Antibacterial susceptibility testing: IC90 determination (STA); format: cell-based; conditions: ATCC29213, S. aureus ATCC 29213, 90% inhibitory concentration for bacterial growth, read-out: STA (361.159) IC90
Method: (§1) The following bacteria were used: Staphylococcus aureus ATCC 29213, methicillin-resistant Staphylococcus aureus (MRSA) ATCC 700788 and Escherichia coli ATCC 35218. The bacteria used in this study were grown overnight in flasks containing 100 ml Mueller-Hinton broth (Difco cat. nr. 0757-17) in sterile de-ionized water, with shaking, at 37° C. Stocks were store at −70° C. until use.
(§2) Bacteria were incubated on a tryptic soy agar plate containing 5% sheep blood (Becton Dickinson cat. nr. 254053) for 18-24 hours at 35° C. in aerobic conditions (first passage). For the second passage, fresh Mueller-Hinton broth is inoculated with 5-10 colonies and grown overnight at 35° C. until turbidity (reaching log-phase) in aerobic conditions is reached. The bacterial suspension is then adjusted to 0.5 McFarland density and further diluted 1:100 in Mueller Hinton broth medium. This is used as inoculum.
(§3) MIC assays were performed by the broth microdilution method in a 96-well format (flat-bottom microtitre plates) with a final volume of 0.1 ml Mueller Hinton broth containing two-fold serial dilutions of compounds and inoculated with 5×10^5 CFU/ml of bacteria (standard inoculum size according to CLSI guidelines). Inhibitors are typically varied over the range of 63 to 0.49 μM. The final DMSO concentration in the assay was 1.25% (maximum tolerable DMSO concentration=6%). In the assays where the effect of human serum on the activity of the compounds against S. aureus was tested, human serum was added at a final concentration of 10%. The plates were incubated at 35° C. for 16-20 hours. At the end of incubation the bacterial growth was quantified fluorometrically. For this, resazurin was added to all wells and the plates were re-incubated. The incubation time is dependent on the type of bacteria. A change in color from blue to pink indicated the growth of bacteria. The fluorescence was read in computer-controlled fluorometer (Fluoroskan Ascent FL, Labsystems) at an excitation wavelength 540 nm and an emission wavelength of 590 nm. The % growth inhibition achieved by the compounds was calculated according to standard methods. The IC90 (expressed in μg/ml) was defined as the 90% inhibitory concentration for bacterial growth. A panel of reference compounds were simultaneously tested for QC approval.

[3] = tested on: S. aureus; assay: Antibacterial susceptibility testing: IC90 determination with 10% human serum (STA + 10% HS); format: cell-based; conditions: Staphylococcus aureus; S. aureus with human serum at final concentration of 10%; read-out: STA + 10% HS (361.169) IC90
Method: as §1, §2, §3
The results are depicted in the table D2 below (STA+10% HS).

[4] = Cytotoxicity MTT assay (TOX HELAM); format: cell-based; conditions: human, HelaM cells, read-out: TOX HELAM (222.125) CC50
Method: Cytotoxicity of the compounds was evaluated using the MTT assay. Human HelaM cells grown in 96-well plates were exposed to serial dilutions of the tested compounds (final volume of 0.2 ml) and incubated for 72 hours at 37° C. and 5% CO2. Inhibitors are typically varied over the range of 25 to 0.8 μM. The final DMSO concentration in the assay is 0.5%. MTT (3-(4,5-Dimethylthiazol-2-yl)-2,5-diphenyltetrazolium bromide, a tetrazole) was added and reduced to purple formazan only in living cells. Solubilization of the formazan crystals was achieved by adding 100 μl 2-propanol. Cell viability was determined by measuring the absorbance of the reduced formazan, giving a purple color, at 540 nm and 690 nm. The absorbance measured at 690 nm was automatically subtracted from the absorbance at 540 nm, to eliminate the effects of non-specific absorption. The percent cytotoxicity achieved by the compounds was calculated according to standard methods. Cytotoxicity is reported as CC50, the concentration that causes a 50% reduction in cell viability.
The results are depicted in the table D2 below (TOX HELAM).

[5] = In vivo pharmacokinetic and oral bioavailability; conditions: male Swiss mice; for AUC(0-inf) / C0 / half-life / clearance / bioavailability / Tmax / Cmax: mouse, plasma; for C0 / Cmax: 20% HP-β-CD solution; for half-life: read-out: Half life (t1/2) (converted); for clearance: read-out: Plasma clearance Cl (converted); for bioavailability: p.o. 10 mg/kg vs i.v. 2.5 mg/kg
Method: The in vivo pharmacokinetics and oral bioavailability of the compound of the examples was/is investigated in male Swiss mice (fed) following single intravenous (i.v.) bolus and oral (p.o.) administration. For the i.v. and p.o. solution formulations, the compound was/is dissolved in a 20% HP-β-CD solution. The pH of the formulations was/is around pH 4. All i.v. formulations were isotonic.

[6] = tested on: S. aureus ATCC 29213; assay: MIC broth microdilution (CLSI), S. aureus ATCC 29213; format: cell-based; conditions: Staphylococcus aureus, ATCC 29213 / MSSA, reference strain MSSA
Method: (§4) Minimum Inhibitory Concentrations (MICs) were determined in accordance with the Clinical and Laboratory Standards Institute (CLSI) methodology against aerobic bacteria (CLSI M07-A8) (see Clinical and Laboratory Standards Institute. 2009. Methods for dilution antimicrobial susceptibility tests for bacteria that grow aerobically. CLSI document M07-A8, Vol. 29, No. 2.) by the broth microdilution method with cation-adjusted Mueller-Hinton broth (CA-MHB) medium for the majority of organisms, except for Haemophilus influenza, where Haemophilis test medium (HTM) broth was used. Descriptions of the individual organisms can be found in the table. Where possible, ATCC standard strains were tested.
(§5) The inoculum density for the susceptibility testing was standardized to give a final inoculum of approximately 5×10^5 CFU/mL.
(§6) Stock solutions of the compounds were prepared in DMSO at concentrations of 1 mg/mL. Linezolid was prepared in DMSO at a concentration of 2 mg/mL. Stock solutions of all compounds were diluted into CA-MHB to give a range of two-fold dilutions, depending upon the sensitivity of the organism being tested.

[7] = tested on: S. aureus ATCC 43300; assay: MIC broth microdilution (CLSI), S. aureus ATCC 43300; format: cell-based; conditions: Staphylococcus aureus, ATCC 43300 / MRSA, reference strain MRSA
Method: as §4, §5, §6

[8] = tested on: E. coli tolC mutant; assay: MIC broth microdilution (CLSI), E. coli tolC mutant; format: cell-based; conditions: Escherichia coli
Method: as §4, §5, §6

[9] = tested on: E. coli ATCC 25922; assay: MIC broth microdilution (CLSI), E. coli ATCC 25922; format: cell-based; conditions: Escherichia coli, ATCC25922
Method: as §4, §5, §6

[10] = tested on: H. influenza ATCC 49247; assay: MIC broth microdilution (CLSI), H. influenza ATCC 49247; format: cell-based; conditions: Haemophilus influenzae, ATCC49247, HTM broth
Method: as §4, §5, §6

Compound | IC50 [1] [nM] | IC90 [2] [µg/mL] | IC90 [3] [µg/mL] | CC50 at 72 h [4] [µg/mL] | also measured
Cc1ccc(F)cc1C1=CCN(C(=O)/C=C/c2cnc3c(c2)CCC(=O)N3)CCC1 [Co. No. 14] | 863 | 1.54 (≈ 3.8 µM) | 3.74 | 9.73 (≈ 24 µM) | Vdz ([5]; i.v. 2.5 mg/kg): 1.0 L/kg; AUC(0-inf) ([5]; iv, i.v. 2.5 mg/kg): 6700 ng·h/mL; C0 ([5]; iv, i.v. 2.5 mg/kg): 4550 ng/mL; half-life ([5]; iv, i.v. 2.5 mg/kg): 2 h; clearance ([5]; iv, i.v. 2.5 mg/kg): 6 mL/min/kg; bioavailability ([5]; po): 90%; AUC(0-inf) ([5]; po, p.o. 10 mg/kg): 23800 ng·h/mL; Tmax ([5]; po, p.o. 10 mg/kg): 1 h; Cmax ([5]; po, p.o. 10 mg/kg): 3930 ng/mL; half-life ([5]; po, p.o. 10 mg/kg): 2.8 h
O=C1CCc2cc(/C=C/C(=O)N3CCCN(c4ccccc4)CC3)cnc2N1 [Co. No. 11] | 1040 | 3.24 (≈ 8.61 µM) | 5.76 | > 9.46 | melting point: 156 °C
O=C1CCc2cc(/C=C/C(=O)N3CCC=C(c4cccc(Cl)c4)CC3)cnc2N1 [Co. No. 19] | 1050 | 0.35 (≈ 0.858 µM) | 1.38 | > 20.4 | MIC90 [6]: 0.125 µg/mL (≈ 0.306 µM); MIC90 [7]: 0.25 µg/mL (≈ 0.613 µM); MIC90 [8]: 1 µg/mL (≈ 2.45 µM); MIC90 [9]: > 8 µg/mL; MIC90 [10]: > 8 µg/mL
CC1(c2ccccc2)CCCN(C(=O)/C=C/c2cnc3c(c2)CCC(=O)N3)CC1 (stereo not drawn) [Co. No. 28] | ~1670 | 2.4 (≈ 6.16 µM) | 7.42 | > 9.78 | 
O=C1CCc2cc(/C=C/C(=O)N3CCC=C(c4ccc(Cl)cc4)CC3)cnc2N1 [Co. No. 24] | 1910 | 1.52 (≈ 3.73 µM) | 6.17 | 7.25 (≈ 17.8 µM) | 
COc1cccc(F)c1C1=CCCN(C(=O)/C=C/c2cnc3c(c2)CCC(=O)N3)CC1 [Co. No. 31] | 1610 | 0.21 (≈ 0.498 µM) | 0.26 | > 10.6 | 
Cc1ccc(C)c(C2=CCN(C(=O)/C=C/c3cnc4c(c3)CCC(=O)N4)CCC2)c1 [Co. No. 16] | 946 | 1.49 (≈ 3.71 µM) | 3.01 | 9.09 (≈ 22.6 µM) | 
Cc1ccccc1C1=CCCN(C(=O)/C=C/c2cnc3c(c2)CCC(=O)N3)CC1 [Co. No. 8] | 852 | 0.69 (≈ 1.78 µM) | 0.84 | 9.3 (≈ 24 µM) | 
COc1ccccc1C1=CCCN(C(=O)/C=C/c2cnc3c(c2)CCC(=O)N3)CC1 [Co. No. 10] | 867 | 0.09 (≈ 0.223 µM) | 0.2 | > 10.1 | Vdz ([5]; i.v. 2.5 mg/kg): 2.0 L/kg; AUC(0-inf) ([5]; iv, i.v. 2.5 mg/kg): 2160 ng·h/mL; C0 ([5]; iv, i.v. 2.5 mg/kg): 3400 ng/mL; half-life ([5]; iv, i.v. 2.5 mg/kg): 1.2 h; clearance ([5]; iv, i.v. 2.5 mg/kg): 20 mL/min/kg; bioavailability ([5]; po): 78%; AUC(0-inf) ([5]; po, p.o. 10 mg/kg): 7090 ng·h/mL; Tmax ([5]; po, p.o. 10 mg/kg): 0.5 h; Cmax ([5]; po, p.o. 10 mg/kg): 3740 ng/mL; half-life ([5]; po, p.o. 10 mg/kg): 2 h
O=C1CCc2cc(/C=C/C(=O)N3CCCC(c4ccccc4)CC3)cnc2N1 (stereo not drawn) [Co. No. 4] | 666 | 3.42 (≈ 9.11 µM) | 3.54 | > 9.43 | 
O=C1CCc2cc(/C=C/C(=O)N3CCC=C(c4ccccc4F)CC3)cnc2N1 [Co. No. 23] | 1070 | 0.18 (≈ 0.46 µM) | 0.35 | > 9.83 | 
O=C1CCc2cc(/C=C/C(=O)N3CC=C(c4ccccc4Cl)CCC3)cnc2N1 [Co. No. 20] | 785 | 0.63 (≈ 1.54 µM) | 1.15 | 8.52 (≈ 20.9 µM) | 
COc1ccc(F)cc1C1=CCN(C(=O)/C=C/c2cnc3c(c2)CCC(=O)N3)CCC1 [Co. No. 13] | 1380 | 1.43 (≈ 3.39 µM) | 3.05 | > 10.6 | 
